Laboratory results as given in PubChem BioAssay (NCI).
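Results reflect a 48-hour exposure of cells in 96-well plates to compound at five concentrations. At the GI50, growth is halved. TGI is the concentration that stops growth completely.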

Key:
Assay in all cases: DTP human tumour cell line panel, 48 h
[1] = test system: HOP-92 NSCLC
[2] = test system: MDA-MB-435
[3] = test system: A549 NSCLC
[4] = test system: SF-268 CNS
[5] = test system: LOX IMVI melanoma
[6] = test system: OVCAR-5 ovarian
[7] = test system: EKVX NSCLC
[8] = test system: SK-MEL-5 melanoma
[9] = test system: HCC-2998 colon
[10] = test system: MOLT-4 leukemia
[11] = test system: SN12C renal
[12] = test system: OVCAR-8 ovarian
[13] = test system: HT29 colon
[14] = test system: HCT-15 colon
[15] = test system: HCT-116 colon
[16] = test system: NCI-H460 lung
[17] = test system: SNB-19 CNS
[18] = test system: 786-0 renal
[19] = test system: NCI-H226 lung
[20] = test system: U251 CNS
[21] = test system: A498 renal
[22] = test system: SK-MEL-2 melanoma
[23] = test system: NCI/ADR-RES ovarian
[24] = test system: UACC-62 melanoma
[25] = test system: NCI-H23 lung
[26] = test system: OVCAR-3 ovarian
[27] = test system: TK-10 renal
[28] = test system: UO-31 renal
[29] = test system: SNB-75 CNS
[30] = test system: UACC-257 melanoma
[31] = test system: SF-539 CNS
[32] = test system: COLO 205 colon
[33] = test system: MCF7 breast
[34] = test system: DU-145 prostate
[35] = test system: SK-OV-3 ovarian
[36] = test system: BT-549 breast
[37] = test system: HOP-62 NSCLC
[38] = test system: T-47D breast
[39] = test system: OVCAR-4 ovarian
[40] = test system: SW-620 colon
[41] = test system: M14 melanoma
[42] = test system: MDA-N
[43] = test system: RXF 393 renal
[44] = test system: SF-295 CNS
[45] = test system: CAKI-1 renal
[46] = test system: HL-60(TB) leukemia
[47] = test system: SK-MEL-28 melanoma
[48] = test system: KM12 colon
[49] = test system: IGROV1 ovarian
[50] = test system: MDA-MB-231 breast
[51] = test system: ACHN renal
[52] = test system: PC-3 prostate
[53] = test system: CCRF-CEM leukemia
[54] = test system: K-562 leukemia
[55] = test system: MALME-3M melanoma
[56] = test system: RPMI-8226 leukemia
[57] = test system: HS 578T breast
[58] = test system: NCI-H522 lung
[59] = test system: SR leukemia

## CCOP(=O)(OCC)/C(=C\N1C(=O)CC(=O)NC1=S)C(=O)OC
[1]
  TGI: > 100 µM
[2]
  TGI: > 100 µM
[3]
  TGI: > 100 µM
[4]
  TGI: > 100 µM
[5]
  TGI: > 100 µM
[6]
  TGI: > 100 µM
[7]
  TGI: > 100 µM
[8]
  TGI: > 100 µM
[9]
  TGI: > 100 µM
[10]
  TGI: > 100 µM
[11]
  TGI: > 100 µM
[12]
  TGI: > 100 µM
[13]
  TGI: > 100 µM
[14]
  TGI: > 100 µM
[15]
  TGI: > 100 µM
[16]
  TGI: > 100 µM
[17]
  TGI: > 100 µM
[18]
  TGI: > 100 µM
[19]
  TGI: > 100 µM
[20]
  TGI: > 100 µM
[21]
  TGI: > 100 µM
[22]
  TGI: > 100 µM
[23]
  TGI: > 100 µM
[24]
  TGI: > 100 µM
[25]
  TGI: > 100 µM
[26]
  TGI: > 100 µM
[27]
  TGI: > 100 µM
[28]
  TGI: > 100 µM
[29]
  TGI: > 100 µM
[30]
  TGI: > 100 µM
[31]
  TGI: > 100 µM
[32]
  TGI: > 100 µM
[33]
  TGI: > 100 µM
[34]
  TGI: > 100 µM
[35]
  TGI: > 100 µM
[36]
  TGI: > 100 µM
[37]
  TGI: > 100 µM
[38]
  TGI: > 100 µM
[39]
  TGI: > 100 µM
[40]
  TGI: > 100 µM
[41]
  TGI: > 100 µM
[42]
  TGI: > 100 µM
[43]
  TGI: > 100 µM
[44]
  TGI: > 100 µM
[45]
  TGI: > 100 µM
[46]
  TGI: > 100 µM
[47]
  TGI: > 100 µM
[48]
  TGI: > 100 µM
[49]
  TGI: > 100 µM
[50]
  TGI: > 100 µM
[51]
  TGI: > 100 µM

## CC1(C)CN(c2ccccc2)C(=O)C1OC(=O)[C@@]1(C)C[C@@H]2C=C[C@H]1C2 (some centres not stated)
[1]
  TGI: 60.6 µM
[2]
  TGI: 42 µM
[3]
  TGI: 83.7 µM
[4]
  TGI: 82.5 µM
[5]
  TGI: 40.3 µM
[52]
  TGI: 83.2 µM
[6]
  TGI: 56.6 µM
[7]
  TGI: 59.9 µM
[53]
  TGI: 81.4 µM
[8]
  TGI: 29.4 µM
[10]
  TGI: > 100 µM
[11]
  TGI: 49.8 µM
[12]
  TGI: > 100 µM
[13]
  TGI: 28.8 µM
[14]
  TGI: 55.1 µM
[15]
  TGI: 35.8 µM
[16]
  TGI: 55 µM
[17]
  TGI: 65.5 µM
[18]
  TGI: 39.2 µM
[19]
  TGI: 53.6 µM
[20]
  TGI: 43.9 µM
[21]
  TGI: 61.3 µM
[22]
  TGI: 35.4 µM
[23]
  TGI: 52.2 µM
[54]
  TGI: > 100 µM
[24]
  TGI: 41.4 µM
[55]
  TGI: 28.3 µM
[25]
  TGI: 56 µM
[26]
  TGI: > 100 µM
[27]
  TGI: 64.7 µM
[56]
  TGI: 30 µM
[28]
  TGI: 30.8 µM
[29]
  TGI: 75 µM
[30]
  TGI: 42.5 µM
[31]
  TGI: 52.9 µM
[32]
  TGI: 34 µM
[33]
  TGI: 58 µM
[34]
  TGI: > 100 µM
[57]
  TGI: 54.7 µM
[35]
  TGI: 94.7 µM
[36]
  TGI: 82.5 µM
[37]
  TGI: 40.8 µM
[38]
  TGI: 73.2 µM
[39]
  TGI: 39.9 µM
[40]
  TGI: > 100 µM
[41]
  TGI: 40.1 µM
[42]
  TGI: 41.6 µM
[43]
  TGI: 35.4 µM
[44]
  TGI: 46.7 µM
[45]
  TGI: 61.5 µM
[46]
  TGI: 46.3 µM
[47]
  TGI: 35.1 µM
[48]
  TGI: 45.2 µM
[49]
  TGI: 41.3 µM
[50]
  TGI: 79.3 µM
[51]
  TGI: > 100 µM

## CNC(=O)c1c(NC(=O)c2cccc(C(F)(F)F)c2)sc2c1CCC(=O)C2
[1]
  GI50: 0.383 µM
  TGI: 2.58 µM
[2]
  GI50: 0.544 µM
  TGI: 3.1 µM
[3]
  GI50: 0.387 µM
  TGI: > 34.3 µM
[4]
  GI50: 0.486 µM
  TGI: > 100 µM
[5]
  GI50: 0.339 µM
  TGI: 1.66 µM
[52]
  GI50: 0.139 µM
  TGI: 1.19 µM
[6]
  GI50: 0.465 µM
  TGI: 2.73 µM
[7]
  GI50: 0.593 µM
  TGI: > 21.7 µM
[53]
  GI50: 0.113 µM
  TGI: 1.49 µM
[8]
  GI50: 0.462 µM
  TGI: 1.66 µM
[9]
  GI50: 0.656 µM
  TGI: 2.52 µM
[10]
  GI50: 0.356 µM
  TGI: 4.63 µM
[58]
  GI50: 0.075 µM
  TGI: 0.549 µM
[11]
  GI50: 0.361 µM
  TGI: > 20.7 µM
[12]
  GI50: 0.324 µM
  TGI: > 100 µM
[13]
  GI50: 0.347 µM
[14]
  GI50: 0.249 µM
  TGI: 1.51 µM
[15]
  GI50: 0.199 µM
  TGI: 1.59 µM
[16]
  GI50: 0.365 µM
  TGI: > 100 µM
[17]
  GI50: 0.356 µM
  TGI: > 100 µM
[18]
  GI50: 0.447 µM
  TGI: > 36.8 µM
[19]
  GI50: 1.61 µM
  TGI: 5.71 µM
[20]
  GI50: 0.259 µM
  TGI: 2.73 µM
[21]
  GI50: 1.67 µM
  TGI: 5.71 µM
[22]
  GI50: 0.874 µM
  TGI: 3.5 µM
[23]
  GI50: 0.349 µM
  TGI: 1.72 µM
[54]
  GI50: 0.135 µM
  TGI: > 100 µM
[24]
  GI50: 0.414 µM
  TGI: 2.14 µM
[55]
  GI50: 0.373 µM
  TGI: 2.28 µM
[25]
  GI50: 0.318 µM
  TGI: 7.56 µM
[26]
  GI50: 0.448 µM
  TGI: 2.04 µM
[27]
  GI50: 0.469 µM
  TGI: > 40.8 µM
[56]
  GI50: 0.198 µM
  TGI: 0.781 µM
[28]
  GI50: 0.197 µM
  TGI: 0.77 µM
[29]
  GI50: 0.575 µM
  TGI: 5.27 µM
[30]
  GI50: 1.9 µM
  TGI: 7.3 µM
[31]
  GI50: 0.339 µM
  TGI: 1.67 µM
[32]
  GI50: 0.382 µM
  TGI: 1.48 µM
[33]
  GI50: 0.283 µM
  TGI: 2.84 µM
[34]
  GI50: 3.22 µM
  TGI: > 100 µM
[57]
  GI50: 0.425 µM
  TGI: 45.9 µM
[35]
  GI50: 2.22 µM
  TGI: 8.24 µM
[36]
  GI50: 0.352 µM
  TGI: 2.83 µM
[37]
  GI50: 1.94 µM
  TGI: > 48.6 µM
[38]
  GI50: 0.305 µM
  TGI: 2.29 µM
[39]
  GI50: 0.389 µM
  TGI: 1.44 µM
[40]
  GI50: 0.254 µM
  TGI: 1.75 µM
[41]
  GI50: 0.417 µM
  TGI: 4 µM
[43]
  GI50: 0.326 µM
  TGI: 1.97 µM
[44]
  GI50: 0.36 µM
  TGI: 1.88 µM
[45]
  GI50: 0.282 µM
  TGI: 1.22 µM
[46]
  GI50: 0.318 µM
  TGI: 1.98 µM
[59]
  GI50: 0.191 µM
  TGI: > 100 µM
[47]
  GI50: 0.837 µM
  TGI: > 100 µM
[48]
  GI50: 0.423 µM
  TGI: 1.96 µM
[49]
  GI50: 0.339 µM
  TGI: 2.26 µM
[50]
  GI50: 0.332 µM
  TGI: 1.88 µM
[51]
  GI50: 0.323 µM
  TGI: 1.34 µM
